Structures are written as SMILES. Where two headings read alike, the source gives them in different places.

For data set [1] the following is noted: Swiss, mouse, in vivo. As for the experimental part:
(§1) Mice were then decapitated according to selected time points, with blood samples collected following decapitation. The brain was then removed from the skull. For each mouse, the brain hemispheres and two blood samples were weighed in Econo glass vials for liquid scintillation counting (Perkin Elmer). All samples were treated with a tissue solubilizer (Solvable, Perkin Elmer). Blood samples were in addition decolored with 0.2 mL of 30% hydrogen peroxide solution to avoid color quenching issues. After complete tissue sample digestion (24 h in a water bath at 45°C), the vials were cooled and mixed with Ultima‐gold XR (Perkin Elmer). The radioactivity in each vial, expressed in disintegrations per minute (dpm) for ^3H and ^14C, was counted in a Perkin Elmer Tri‐Carb counter.
For [^3H]rosuvastatin, data collection was performed at 5 and 7 min post i.p. injection. […] This avoids quantification bias caused by the formation of possible radiolabelled metabolites.
First, the vascular volume (V vasc, μL/g) was estimated for each mouse as the brain volume of distribution (V d) of [^14C]sucrose: […]

A short description of data set [2]: BBB integrity: vascular volume (V vasc) of [14C]sucrose after i.p. injection. The data set is classed as in vivo, Swiss mice. Conditions: for Kp at 5 min: Swiss, mouse, brain/blood, ip, 0.31 MBq/kg, 5 min post i.p. injection. As for the experimental part:
as §1
First, the vascular volume (V vasc, μL/g) was estimated for each mouse as the brain volume of distribution (V d) of [^14C]sucrose:
[^14C]sucrose V d was calculated as the ratio of midbrain to blood carbon‐14 associated radioactivity (dpm/g) measured at 5 min post i.p. injection. Vvasc=Vdsucrose=Xsucrose,brain/Csucrose,blood
Where X sucrose,brain (dpm/g), is the calculated amount of [^14C]sucrose from the brain and C sucrose,blood (dpm/μL) its blood concentration. The data for any animal whose V vasc was an aberrant value was excluded from the study.
The vascular volume based [^14C]sucrose calculation was used as the outcome parameter for BBB integrity. Higher levels in V vasc indicate leakage of [^14C]sucrose into the brain parenchyma because of BBB leakage.

As for `CC(C)c1nc(N(C)S(C)(=O)=O)nc(-c2ccc(F)cc2)c1/C=C/[C@@H](O)C[C@@H](O)CC(=O)O` [3H-Rosuvastatin, rosuvastatin], the “decrease of cerebral (brain) transport at P30 compared to P15” value in data set [1] worked out at 6.8 fold.

In the case of `OC[C@H]1O[C@@](CO)(O[C@H]2O[C@H](CO)[C@@H](O)[C@H](O)[C@H]2O)[C@@H](O)[C@@H]1O` [14C-Sucrose, sucrose], the Kp at 5 min in data set [2] (mice at P5, brain/blood ratio, read-out: Vv, Mean) amounted to 0.0276; in data set [2] (mice at P5, read-out: Vv, Median) it was 0.0235; in data set [2] (mice at P15, brain/blood ratio, read-out: Vv, Mean), 0.0272; in data set [2] (mice at P15, read-out: Vv, Median) it was 0.0256; in data set [2] (mice at P30, brain/blood ratio, read-out: Vv, Mean) it was 0.0279; in data set [2] (mice at P30, read-out: Vv, Median), 0.0292. Besides, the “V vasc, comparison between ages” value in data set [2] (mice at P5, P15 and P30) was “did not differ between P5, P15, and P30”.

The values are drawn from publication PMC12446565, “Perinatal Maturation of Drug Transporters and Claudin‐5 at the Blood–Brain Barrier” (CNS Neuroscience & Therapeutics, 2025).
